According to patent publication US5854388A, “Angiotensin IV peptides and receptor” (Washington State University Research Foundation, priority 1994, dated 1998):
pKi: −log10 of the molar value. “Also recorded” adds a separate entry of the source.

Assays:
AT4 receptor [1] = biological target: T1, AT4 receptor (Bos taurus, UniProt F1N1Q8); test: 125I-AIV binding, aortic endothelial cell (BAEC) membranes; set-up: species or system bovine; details: 0.6 nM 125I-AIV
T1 sequence (F1N1Q8 1-1022): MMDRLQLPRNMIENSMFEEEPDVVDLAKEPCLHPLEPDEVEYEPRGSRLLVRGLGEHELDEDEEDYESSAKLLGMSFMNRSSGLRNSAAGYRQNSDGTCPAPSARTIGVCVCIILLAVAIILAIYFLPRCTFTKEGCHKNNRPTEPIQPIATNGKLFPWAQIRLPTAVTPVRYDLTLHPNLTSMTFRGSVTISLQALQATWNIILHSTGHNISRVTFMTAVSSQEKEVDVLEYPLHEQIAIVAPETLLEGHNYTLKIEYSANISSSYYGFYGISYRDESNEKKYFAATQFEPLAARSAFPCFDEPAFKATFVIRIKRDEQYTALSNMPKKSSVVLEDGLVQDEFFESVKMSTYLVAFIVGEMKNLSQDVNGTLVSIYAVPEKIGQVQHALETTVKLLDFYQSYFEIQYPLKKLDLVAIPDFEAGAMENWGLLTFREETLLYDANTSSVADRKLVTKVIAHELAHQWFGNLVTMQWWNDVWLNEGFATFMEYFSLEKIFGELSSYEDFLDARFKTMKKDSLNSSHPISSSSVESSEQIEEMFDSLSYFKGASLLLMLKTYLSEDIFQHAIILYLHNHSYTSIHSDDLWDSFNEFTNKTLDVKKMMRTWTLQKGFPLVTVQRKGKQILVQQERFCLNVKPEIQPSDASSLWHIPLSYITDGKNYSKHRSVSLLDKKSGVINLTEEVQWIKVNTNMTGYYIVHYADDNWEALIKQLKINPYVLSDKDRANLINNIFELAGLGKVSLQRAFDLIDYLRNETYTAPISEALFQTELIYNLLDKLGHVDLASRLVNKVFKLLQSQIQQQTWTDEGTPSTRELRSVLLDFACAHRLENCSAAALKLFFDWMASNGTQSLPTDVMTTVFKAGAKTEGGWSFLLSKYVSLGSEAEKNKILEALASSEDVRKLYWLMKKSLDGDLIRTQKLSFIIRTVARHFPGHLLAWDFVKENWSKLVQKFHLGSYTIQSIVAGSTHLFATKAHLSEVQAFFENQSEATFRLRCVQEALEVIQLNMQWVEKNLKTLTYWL

AT1 receptors = test: GTPγS effect on 125I-AII binding, rat vascular smooth muscle cell (RVSMC) membranes; details: 0.5 nM 125I-AII
AT4 receptor [2] = biological target: T1, AT4 receptor; test: 125I-AIV binding and competition, bovine adrenal cortical membranes
[3] = biological target: T2, AT1 receptor (AII receptor) (Bos taurus, UniProt P25104); type: binding, bovine; details: competition
T2 construct: from tissue; host or cells: bovine adrenal cortex membranes
T2 sequence (P25104 1-359): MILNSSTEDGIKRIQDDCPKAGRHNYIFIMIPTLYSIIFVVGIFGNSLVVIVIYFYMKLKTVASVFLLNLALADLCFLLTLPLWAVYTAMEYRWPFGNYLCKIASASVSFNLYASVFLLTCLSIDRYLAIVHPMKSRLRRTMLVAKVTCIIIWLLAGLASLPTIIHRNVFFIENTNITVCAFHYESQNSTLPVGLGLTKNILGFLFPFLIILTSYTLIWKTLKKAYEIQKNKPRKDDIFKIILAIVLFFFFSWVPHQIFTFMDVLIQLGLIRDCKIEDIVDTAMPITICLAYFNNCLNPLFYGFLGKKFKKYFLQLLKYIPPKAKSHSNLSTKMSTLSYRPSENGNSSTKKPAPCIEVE

AT4 receptor [4] = biological target: T1, AT4 receptor; test: 125I-AIV binding and competition, solubilized bovine adrenal cortical receptor
AT4 receptor [5] = type: binding, rat; details: brain, heart, kidney, aorta, lung, liver, cultured smooth muscle cells
Description: A second major approach to defining separate and distinct binding sites was to examine their relative tissue and species distribution (Table 8).
*25 μg of membrane protein was incubated with 500,000 cpm of label.
Specific binding was defined as total […]
At this time, the significance of this finding is uncertain.

rat kidney = test: Renal cortical blood flow (laser doppler) and arterial pressure after infusion into the renal artery; type: in vivo
rats = test: Passive avoidance conditioning after icv injection; type: in vivo, rat
bovine endothelial cells = test: Endothelial cell growth (thymidine incorporation) and EDRF production; type: cell-based
Description: Cells were grown at 37° C. in 35 mm culture plates […] under 5% CO2 /95% air in Dulbecco's Modified Eagle's Medium (DMEM) supplemented with 5 μg/ml insulin and 10% (v/v) newborn bovine serum (NBBS). […] Negative controls were also included using ethidium bromide (1 mM). The cells were harvested at various times, and cellular lysates were prepared for scintillation counting by lysing and washing the cells on glass fiber filters.
Bovine aortic endothelial cells were grown at 37° C. in 35 mm culture plates under 5% CO2 in air in Dulbecco's Modified Eagle's Medium (DMEM) supplemented with 5 μg/ml insulin and 10% (v/v) newborn bovine serum (NBBS). The medium was aspirated 10-12 hours after seeding and replaced with serum-free medium. The medium was again aspirated 10-12 hours later and replaced with either test or control medium. Control medium was DMEM with 5 µg/ml insulin and 2%, 5%, or 10% (v/v) NBBS as indicated. […] The medium was changed every 48 h (i.e., with supportive DMEM medium for the remainder of the experiment).
As an adjunct to the determination of cell numbers, thymidine incorporation was measured. […] This material was then filtered under vacuum through 2.4 cm glass fiber filters (GF/A, Whatman), and the filters were washed twice with 10 ml of absolute ethanol and assayed for radioactivity by scintillation counting.

cardiocytes = test: Hypertrophic action of AII on cardiocytes; type: cell-based
[6] = arterial and venous blood in man; cited from earlier work

Compound	effect on 125I-AIV binding (AT4 receptor [1])	effect on 125I-AII binding (AT1 receptors)	Bmax (AT4 receptor [2])	pKi [3]	off-rate t1/2 (AT4 receptor [4]) [h]	binding in rat tissues (in words) (AT4 receptor [5])	effect on renal blood flow (in words) (rat kidney; infusion into renal artery)	effect of preinfusion on blood flow response to another ligand (rat kidney; rat, in vivo)	agonist / antagonist activity (in words) (rat kidney; renal blood flow response compared to AIV)	passive avoidance latency / cognitive effect (in words) (rats)	EDRF production (bovine endothelial cells)	endothelial cell proliferation (thymidine incorporation) (bovine endothelial cells)	effect on hypertrophic action of AII (cardiocytes)	half-lives [6] [min]
Nc1nc2c(ncn2[C@@H]2O[C@H](COP(=O)(O)OP(=O)(O)OP(O)(O)=S)[C@@H](O)[C@H]2O)c(=O)[nH]1 [GTPγS]	no effect; also recorded: did not inhibit (or alter) binding	inhibited												
CC[C@H](C)[C@H](NC(=O)[C@H](Cc1ccc(O)cc1)NC(=O)[C@@H](N)C(C)C)C(=O)N[C@@H](Cc1cnc[nH]1)C(=O)N1CCC[C@H]1C(=O)N[C@@H](Cc1ccccc1)C(=O)O [AIV, Val1 Tyr2 Ile3 His4 Pro5 Phe6]			3.82±1.12	< 6.00	4.873	not been possible to demonstrate binding	profound and long-lasting increase in blood flow; also recorded: equally dramatic increase in flow; also recorded: dramatically increase renal blood flow and urine flow in a dose-dependent fashion	completely blocked the constrictive action of AII	full agnoistic activity	significantly elevated latency times	stimulating production of endothelial cell relaxing factor (EDRF)	enhancing cellular proliferation	antagonizes the hypertrophic action of AII	1.9
